Columns and labels:
[1] = system: LPS-stimulated primary murine macrophages (IL1β, IL6 and TNFα expression); assay: Pro-inflammatory cytokine mRNA expression (RT-qPCR) in LPS-stimulated macrophage cultures; type: cell-based, mouse; settings: 10^−6 M, added 1 h before LPS 1 μg/ml, 24 h, bone marrow-derived macrophages
Method: Cell culture. Primary bone marrow-derived macrophages (BMDMs) were isolated from the femora and tibiae of 10-week-old C57BL/6J mice (Envigo, Israel), as previously described ([Hiram-Bab et al., 2015]). Briefly, cells were cultured overnight at 37°C in a humidified atmosphere with 5% CO2 in our “standard medium” consisting of alpha-modified Eagle’s medium (αMEM, Life Science Technology, NY, United States) and 10% fetal bovine serum (FBS, Rhenium, Ltd., Modi’in, Israel). After 24 h, the non-adherent fraction was cultured in 10-cm non-culture-treated dishes containing standard medium and 100 ng/ml macrophage colony stimulating factor (M-CSF) ([Takeshita et al., 2000]). The resulting adherent BMDMs were collected after 3 days for the specific assays described below.
RNA isolation, and RT-qPCR. Following a 24 h incubation with Ti particles (or LPS/vehicle only/SNV/VIP in addition to Ti particles), macrophages were washed with sterile PBS, and RNA was extracted using Tri-RNA Reagent (Favorgen Biotech Corp, Kaohsiung, Taiwan). The 260/280 absorbance ratio was measured to verify the RNA purity and concentration. cDNA was produced using a high-capacity cDNA reverse transcription kit (Invitrogen, Grand Island, NY, United States), and real-time PCR was performed using Kapa SYBR Fast qPCR (Kapa Biosystems, Wilmington, MA, United States) on a StepOne real-time PCR machine (Applied Biosystems, Grand Island, NY, United States).
The following primers were used: F-[…] and R-[…] for mouse IL1β; F-[…] and R-[…] for mouse IL6; F-[…] and R-[…] for mouse TNFα; F-CCGTAACTGCACTGAAGA-AG and R-[…] for VPAC-1; F-CAGCAGACCAGGAAACAT-AA and R-GCCACACGCATCTATGAA for VPAC-2 and F-[…] and R-[…] for Gapdh. The reaction was subjected to 40 cycles of amplification using the following program: 95°C for 20 s, 60°C for 20 s, and 72°C for 25 s. The relative mRNA expression levels of the selected genes were normalized to the level of Gapdh.
IL1β, IL6 and TNFα are the main mediators of Ti particle-mediated inflammation and osteolysis ([Eger et al., 2017]; [Eger et al., 2018]). […]

[2] = intravenously administered, 30 min after injection; ref Gozes et al., 1994; cited from earlier work
Excerpt: VIP and its derivative SNV have been previously studied for immunomodulation properties ([Abad et al., 2006]; [Goursaud et al., 2015]). Here we show the effect of each peptide on the cytokine profile of macrophages in response to LPS and in the osteolytic response to Ti particles using in vitro and in vivo mouse models. […] Furthermore, loading a single dose of SNV into a degradable memb ...

In the case of “Stearyl–HSDAVFTDNYTRLRKQ-Nle-AVKKYLNSILN-NH2 [SNV, Stearyl-norleucine-VIP, lipophilic VIP derivative with N-terminal stearic acid and norleucine in place of methionine at position 17]”, the “Effect on TNFα expression vs LPS” value ([1]; n=5) is reported as “no effect”, the “Reduction of IL1β expression levels vs LPS” value ([1]; n=5, p < 0.05) is reported as 35% and the “Change of IL6 expression vs LPS” value ([1]; n=5, plus = increase) is reported as “no effect”. For the same substance, the “Remaining intact SNV” value [2] was 10%.

— PMC8131842, “Therapeutic Potential of Vasoactive Intestinal Peptide and its Derivative Stearyl-Norleucine-VIP in Inflammation-Induced Osteolysis” (Frontiers in Pharmacology, 2021)
